Results as given in ChEMBL document CHEMBL6074623, “Carbamoylation at C-8 position of natural 3-arylcoumarin scaffold for the discovery of novel PARP-1 inhibitors with potent anticancer activity” (Eur J Med Chem, 2024).

Columns and labels:
SUM149PT [1] = experiment: Antiproliferative activity against human SUM149PT cells assessed as inhibition of cell growth at 20 uM incubated for 48 hrs by MTT assay relative to control; format: functional
HCC1937 [2] = experiment: Antiproliferative activity against human HCC1937 cells assessed as inhibition of cell growth at 20 uM incubated for 48 hrs by MTT assay relative to control; format: functional
MDA-MB-436 = experiment: Antiproliferative activity against human MDA-MB-436 cells assessed as inhibition of cell growth at 20 uM incubated for 48 hrs by MTT assay relative to control; format: functional
SUM149PT [3] = experiment: Antiproliferative activity against human SUM149PT cells assessed as inhibition of cell growth incubated for 48 hrs by MTT assay; format: functional, cell-based
CAPAN-1 [4] = experiment: Antiproliferative activity against human CAPAN-1 cells assessed as inhibition of cell growth incubated for 48 hrs by MTT assay; format: functional, cell-based; conditions: CAPAN-1, 48 h
HCC1937 [5] = experiment: Antiproliferative activity against human HCC1937 cells assessed as inhibition of cell growth incubated for 48 hrs by MTT assay; format: functional, cell-based; conditions: HCC1937, 48 h
CAPAN-1 [6] = experiment: Antiproliferative activity against human CAPAN-1 cells assessed as inhibition of cell growth at 5 uM incubated for 48 hrs by MTT assay relative to control; format: functional
CAPAN-1 [7] = experiment: Antiproliferative activity against human CAPAN-1 cells assessed as inhibition of cell growth at 20 uM incubated for 48 hrs by MTT assay relative to control; format: functional
HCC1937 [8] = experiment: Antiproliferative activity against human HCC1937 cells assessed as inhibition of cell growth at 5 uM incubated for 48 hrs by MTT assay relative to control; format: functional
SUM149PT [9] = experiment: Antiproliferative activity against human SUM149PT cells assessed as inhibition of cell growth at 5 uM incubated for 48 hrs by MTT assay relative to control; format: functional
SUM149PT [10] = experiment: Induction of cell cycle arrest in human SUM149PT cells assessed as accumulation of cells at G0/G1 phase at 2 uM incubated for 24 hrs by propidium iodide/RNase A staining based flow cytometry (reference value: 72.8 %); format: functional
SUM149PT [11] = experiment: Induction of apoptosis in human SUM149PT cells assessed as early apoptotic cells at 2 uM incubated for 48 hrs by Annexin V-FITC/PI staining based flow cytometry (reference value: 2.28 %); format: functional
SUM149PT [12] = experiment: Induction of apoptosis in human SUM149PT cells assessed as early apoptotic cells at 2 uM incubated for 24 hrs by Annexin V-FITC/PI staining based flow cytometry (reference value: 2.59 %); format: functional
SUM149PT [13] = experiment: Induction of apoptosis in human SUM149PT cells assessed as necrotic cells at 2 uM incubated for 48 hrs by Annexin V-FITC/PI staining based flow cytometry (reference value: 0.51 %); format: functional
SUM149PT [14] = experiment: Induction of cell cycle arrest in human SUM149PT cells assessed as accumulation of cells at S phase at 2 uM incubated for 48 hrs by propidium iodide/RNase A staining based flow cytometry (reference value: 18.7 %); format: functional
SUM149PT [15] = experiment: Induction of cell cycle arrest in human SUM149PT cells assessed as accumulation of cells at G2/M phase at 2 uM incubated for 24 hrs by propidium iodide/RNase A staining based flow cytometry (reference value: 5.54 %); format: functional
SUM149PT [16] = experiment: Induction of apoptosis in human SUM149PT cells assessed as necrotic cells at 2 uM incubated for 24 hrs by Annexin V-FITC/PI staining based flow cytometry (reference value: 1.27 %); format: functional
SUM149PT [17] = experiment: Induction of cell cycle arrest in human SUM149PT cells assessed as accumulation of cells at G0/G1 phase at 2 uM incubated for 48 hrs by propidium iodide/RNase A staining based flow cytometry (reference value: 69.2 %); format: functional
SUM149PT [18] = experiment: Induction of apoptosis in human SUM149PT cells assessed as late apoptotic cells at 2 uM incubated for 48 hrs by Annexin V-FITC/PI staining based flow cytometry (reference value: 1.13 %); format: functional
SUM149PT [19] = experiment: Induction of apoptosis in human SUM149PT cells assessed as late apoptotic cells at 2 uM incubated for 24 hrs by Annexin V-FITC/PI staining based flow cytometry (reference value: 2.45 %); format: functional
SUM149PT [20] = experiment: Induction of apoptosis in human SUM149PT cells assessed as viable cells at 2 uM incubated for 24 hrs by Annexin V-FITC/PI staining based flow cytometry (reference value: 93.7 %); format: functional; conditions: read-out: Activity
SUM149PT [21] = experiment: Induction of cell cycle arrest in human SUM149PT cells assessed as accumulation of cells at S phase at 2 uM incubated for 24 hrs by propidium iodide/RNase A staining based flow cytometry (reference value: 16.4 %); format: functional
SUM149PT [22] = experiment: Induction of apoptosis in human SUM149PT cells assessed as viable cells at 2 uM incubated for 48 hrs by Annexin V-FITC/PI staining based flow cytometry (reference value: 96.1 %); format: functional; conditions: read-out: Activity

IC50 (HCC1937 [5]) [µM]	SMILES	inhibition at 20 µM (SUM149PT [1]) [%]	inhibition at 20 µM (HCC1937 [2]) [%]	inhibition at 20 µM (MDA-MB-436) [%]	IC50 (SUM149PT [3]) [µM]	IC50 (CAPAN-1 [4]) [µM]	other results
	NC(=O)c1cccc2cc(-c3cccc(O)c3)c(=O)oc12	> 60	> 60	< 40			
3.67	COc1ccc(-c2cc3cc(F)cc(C(N)=O)c3oc2=O)cc1OC	> 60	> 60	< 40	4.09	8.6	
	NC(=O)c1cc(F)cc2cc(-c3ccc4c(c3)OCO4)c(=O)oc12	> 60	> 60	< 40			
10.8	NC(=O)c1cccc2cc(-c3ccc(O)cc3)c(=O)oc12	> 60	> 60	< 40	3.14	19.1	
	NC(=O)c1cccc2cc(-c3ccccc3)c(=O)oc12	> 60	> 60	< 40			inhibition at 5 µM (CAPAN-1 [6]): > 50%; inhibition at 20 µM (CAPAN-1 [7]): > 60%
2.94	NC(=O)c1cc(F)cc2cc(-c3ccccc3O)c(=O)oc12	> 60	> 80	< 40	3.29	11.9	inhibition at 5 µM (HCC1937 [8]): > 70%
	COc1ccc(-c2cc3cccc(C(N)=O)c3oc2=O)cc1OC	> 60	> 60	< 40			
1.9	NC(=O)c1cc(F)cc2cc(-c3ccsc3)c(=O)oc12	> 60	> 60	< 40	11.6	20.6	
	NC(=O)c1cc(F)cc2cc(-c3ccc(O)cc3)c(=O)oc12	> 60	> 60	< 40			
	NC(=O)c1cc(F)cc2cc(-c3ccccc3)c(=O)oc12	> 60	> 60	< 40			
1.86	NC(=O)c1cc(F)cc2cc(-c3cccs3)c(=O)oc12	> 80	> 80	< 40	0.62	17.2	inhibition at 5 µM (SUM149PT [9]): > 70%; inhibition at 5 µM (HCC1937 [8]): > 70%
	NC(=O)c1cccc2cc(-c3ccc4c(c3)OCO4)c(=O)oc12	> 60	> 60	< 40			
	COc1cc(OC)cc(-c2cc3cccc(C(N)=O)c3oc2=O)c1	> 60	> 60	< 40			
	NC(=O)c1cccc2cn(-c3ccc([C@@H]4CCCNC4)cc3)nc12 [NIRAPARIB]				7.05	10.4	Activity (SUM149PT [10]): 54.2%; Activity (SUM149PT [11]): 11.8%; Activity (SUM149PT [12]): 1.85%; Activity (SUM149PT [13]): 3.34%; Activity (SUM149PT [14]): 51.9%; Activity (SUM149PT [15]): 16.2%; Activity (SUM149PT [16]): 1.93%; Activity (SUM149PT [17]): 32%; Activity (SUM149PT [18]): 7.18%; Activity (SUM149PT [19]): 6.34%; viability at 2 µM (SUM149PT [20]): 89.9%; Activity (SUM149PT [21]): 28.4%; viability at 2 µM (SUM149PT [22]): 77.7%
	NC(=O)c1cccc2cc(-c3ccccc3O)c(=O)oc12	> 60	> 60	< 40			
	COc1ccc(-c2cc3cc(F)cc(C(N)=O)c3oc2=O)cc1O	> 60	> 60	< 40			
	NC(=O)c1cccc2cc(-c3ccc4c(c3)CCO4)c(=O)oc12	> 60	> 60	< 40			
3.71	NC(=O)c1cc(F)cc2cc(-c3ccc4c(c3)CCO4)c(=O)oc12	> 60	> 60	< 40	5.11	21.1	
	NC(=O)c1cc(F)cc2cc(-c3cccc(O)c3)c(=O)oc12	> 60	> 60	< 40			
	NC(=O)c1cccc2cc(-c3ccsc3)c(=O)oc12	> 60	> 60	< 40			
10.6	COc1ccc(-c2cc3cccc(C(N)=O)c3oc2=O)cc1O	> 60	> 60	< 40	4.82	15.3	
	COc1cc(OC)cc(-c2cc3cc(F)cc(C(N)=O)c3oc2=O)c1	> 60	> 60	< 40			
4.2	COc1cc(-c2cc3cc(F)cc(C(N)=O)c3oc2=O)ccc1O	> 60	> 60	< 40	3.18	3.16	inhibition at 5 µM (CAPAN-1 [6]): > 50%; inhibition at 20 µM (CAPAN-1 [7]): > 60%
	NC(=O)c1cccc2cc(-c3cccs3)c(=O)oc12	> 60	> 60	< 40			
	COc1ccc(-c2cc3cc(F)cc(C(N)=O)c3oc2=O)cc1	> 60	> 60	< 40			
	COc1cc(-c2cc3cccc(C(N)=O)c3oc2=O)ccc1O	> 60	> 60	< 40			
0.62	COc1cccc(-c2cc3cccc(C(N)=O)c3oc2=O)c1	> 60	> 80	< 40	4.93	4.6	inhibition at 5 µM (CAPAN-1 [6]): > 50%; inhibition at 20 µM (CAPAN-1 [7]): > 60%; inhibition at 5 µM (HCC1937 [8]): > 70%
	COc1ccc(-c2cc3cccc(C(N)=O)c3oc2=O)cc1	> 60	> 60	< 40			
